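Results reflect a 48-hour exposure of cells in 96-well plates to compound at five concentrations. GI50 marks 50% less growth.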 Active and inactive are the calls of the source. Rule as the data show it: active = GI50 up to about 1.1 µM and inactive = higher.
Tests used:
Assay in all cases: NCI tumour cell line growth inhibition, 48 h
SK-MEL-28 = test system: SK-MEL-28
SR = test system: SR
MOLT-4 = test system: MOLT-4
UO-31 = test system: UO-31
OVCAR-3 = test system: OVCAR-3
786-0 = test system: 786-0
M14 = test system: M14
UACC-257 = test system: UACC-257
SK-OV-3 = test system: SK-OV-3
U-251 = test system: U-251
HCC 2998 = test system: HCC 2998
HT-29 = test system: HT-29
TK-10 = test system: TK-10
UACC-62 = test system: UACC-62
HOP-92 = test system: HOP-92
DU-145 = test system: DU-145
SF-539 = test system: SF-539

| SMILES | GI50 (SK-MEL-28) | GI50 (SR) | GI50 (MOLT-4) | GI50 (UO-31) | GI50 (OVCAR-3) | GI50 (786-0) | GI50 (M14) | GI50 (UACC-257) | GI50 (SK-OV-3) | GI50 (U-251) | GI50 (HCC 2998) | GI50 (HT-29) | GI50 (TK-10) | GI50 (UACC-62) | GI50 (HOP-92) | GI50 (DU-145) | GI50 (SF-539) |
| --- | --- | --- | --- | --- | --- | --- | --- | --- | --- | --- | --- | --- | --- | --- | --- | --- | --- |
| COc1cc(CCC(=O)O)c2cc3ccccc3cc2c1O | 22.4 µM (inactive) | 15.6 µM (inactive) | 8.89 µM (inactive) | 17.8 µM (inactive) | 21.4 µM (inactive) | 16.8 µM (inactive) | 21.7 µM (inactive) | 16.1 µM (inactive) | 67.1 µM (inactive) | 16.4 µM (inactive) | 29 µM (inactive) | 21.1 µM (inactive) | 33.3 µM (inactive) | 18.4 µM (inactive) | 30.9 µM (inactive) |  |  |
| COc1ccc(CC2CCc3nc(N)nc(N)c3C2)cc1OC (configuration not stated) | 36.4 µM (inactive) | 3.7 µM (inactive) | 0.522 µM (active) | 13.8 µM (inactive) | 5.47 µM (inactive) | 0.0551 µM (active) | 0.851 µM (active) | 15.3 µM (inactive) |  | 38.6 µM (inactive) | 0.687 µM (active) | 1.79 µM (inactive) | 7.6 µM (inactive) | 0.0612 µM (active) | 36 µM (inactive) | 0.681 µM (active) | 2.25 µM (inactive) |
| CC(=O)/N=C1/N(/C=C2\C(=O)Oc3ccccc3C2=O)C(=O)/C(=C/c2ccc(NC(C)=O)cc2)N1C | > 100 µM (inactive) | > 100 µM (inactive) | > 100 µM (inactive) |  | 76 µM (inactive) | > 100 µM (inactive) | > 100 µM (inactive) | > 100 µM (inactive) | > 100 µM (inactive) | > 100 µM (inactive) | > 100 µM (inactive) | > 100 µM (inactive) |  | > 100 µM (inactive) |  | > 100 µM (inactive) | > 100 µM (inactive) |
| CC(=O)N(C(C)=O)n1nc2c(n1)C(=O)c1ccccc1C2=O | > 100 µM (inactive) |  | > 100 µM (inactive) | > 100 µM (inactive) | 28.1 µM (inactive) | > 100 µM (inactive) | > 100 µM (inactive) | 81.5 µM (inactive) | > 100 µM (inactive) | > 100 µM (inactive) |  | > 100 µM (inactive) | > 100 µM (inactive) | > 100 µM (inactive) | > 100 µM (inactive) | > 100 µM (inactive) | > 100 µM (inactive) |
| Cc1ccc(S(=O)(=O)n2cncc2CO)cc1 | > 100 µM (inactive) | > 100 µM (inactive) | > 100 µM (inactive) | > 100 µM (inactive) | > 100 µM (inactive) | > 100 µM (inactive) | > 100 µM (inactive) | > 100 µM (inactive) | > 100 µM (inactive) | > 100 µM (inactive) | > 100 µM (inactive) | > 100 µM (inactive) | > 100 µM (inactive) | > 100 µM (inactive) |  | > 100 µM (inactive) | > 100 µM (inactive) |
| COc1cccc(/C=C/C(=O)N2CC(CCl)c3c2cc(N)c2ccccc32)c1 (configuration not stated) | 0.0114 µM (active) |  | 0.0194 µM (active) | 0.00171 µM (active) | < 0.01 µM (active) | 0.00106 µM (active) | 0.00957 µM (active) | 0.0193 µM (active) | 0.00371 µM (active) | 0.000344 µM (active) | 0.00242 µM (active) | < 0.01 µM (active) | 0.00314 µM (active) | 0.00298 µM (active) | 0.0993 µM (active) | 0.00018 µM (active) |  |
| O=C(O)c1cc(CCc2ccc(O)c(O)c2)ccc1O |  | 24.4 µM (inactive) | > 100 µM (inactive) | > 100 µM (inactive) | > 100 µM (inactive) | > 100 µM (inactive) | > 100 µM (inactive) | > 100 µM (inactive) | > 100 µM (inactive) | > 100 µM (inactive) | > 100 µM (inactive) | > 100 µM (inactive) |  | > 100 µM (inactive) |  | > 100 µM (inactive) | > 100 µM (inactive) |
| OCc1cn(C(c2ccccc2)(c2ccccc2)c2ccccc2)cn1 | > 100 µM (inactive) | > 100 µM (inactive) | > 100 µM (inactive) | > 100 µM (inactive) | > 100 µM (inactive) |  | > 100 µM (inactive) | > 100 µM (inactive) | 66.4 µM (inactive) | 50.9 µM (inactive) | > 100 µM (inactive) | > 100 µM (inactive) | > 100 µM (inactive) |  | 29.7 µM (inactive) | > 100 µM (inactive) |  |
| Cc1ccc(S(=O)(=O)N2CCCSCC2)cc1 | > 100 µM (inactive) | > 100 µM (inactive) | > 100 µM (inactive) | 35.2 µM (inactive) |  |  |  | > 100 µM (inactive) | > 100 µM (inactive) | > 100 µM (inactive) | > 100 µM (inactive) | > 100 µM (inactive) | > 100 µM (inactive) |  | > 100 µM (inactive) | > 100 µM (inactive) |  |
| CCOc1c(/N=N/c2ccccc2Cl)c(-c2ccccc2)nn1C(=S)S | > 100 µM (inactive) | 26.5 µM (inactive) | 23.9 µM (inactive) | 35.6 µM (inactive) | 25 µM (inactive) | 37.4 µM (inactive) | 47.9 µM (inactive) | 50.6 µM (inactive) | > 100 µM (inactive) | 51.1 µM (inactive) |  | 25.2 µM (inactive) | 77.6 µM (inactive) | 31.2 µM (inactive) | 54 µM (inactive) | > 100 µM (inactive) | 14.2 µM (inactive) |
